Assay results published in ChEMBL document CHEMBL1201862, “PubChem BioAssay data set” (2004).
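Tested at 5 concentrations; 48 h exposure; 96-well plates; endpoints linearly interpolated, else capped at highest concentration. Here, GI50 denotes the concentration required for 50% inhibition of growth.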 Active and inactive are the calls of the source. No stated cut-off is given here; in the data, active = GI50 up to about 1.1 µM and inactive = higher.

How the values were obtained:
Assay in all cases: inhibition of tumour cell growth, NCI panel, 48 h
SW-620 = test system: SW-620
MCF7 = test system: MCF7
MDA-N = test system: MDA-N
786-0 = test system: 786-0
SNB-19 = test system: SNB-19
K562 = test system: K562
ACHN = test system: ACHN
HCT-15 = test system: HCT-15
DU-145 = test system: DU-145
EKVX = test system: EKVX
RXF 393 = test system: RXF 393
SF-268 = test system: SF-268
SN12C = test system: SN12C
KM12 = test system: KM12
HCT-116 = test system: HCT-116
NCI-H23 = test system: NCI-H23
OVCAR-8 = test system: OVCAR-8
HL-60 = test system: HL-60
IGROV-1 = test system: IGROV-1
COLO 205 = test system: COLO 205
M14 = test system: M14
MOLT-4 = test system: MOLT-4
TK-10 = test system: TK-10
RPMI-8226 = test system: RPMI-8226
HT-29 = test system: HT-29
HOP-92 = test system: HOP-92
BT-549 = test system: BT-549
CCRF-CEM = test system: CCRF-CEM
OVCAR-5 = test system: OVCAR-5
Malme-3M = test system: Malme-3M
NCI/ADR-RES = test system: NCI/ADR-RES
SF-539 = test system: SF-539
UO-31 = test system: UO-31
CAKI-1 = test system: CAKI-1
Hs-578T = test system: Hs-578T
UACC-62 = test system: UACC-62
UACC-257 = test system: UACC-257
OVCAR-3 = test system: OVCAR-3
MDA-MB-435 = test system: MDA-MB-435
MDA-MB-231 = test system: MDA-MB-231
NCI-H226 = test system: NCI-H226
SK-MEL-5 = test system: SK-MEL-5
T47D = test system: T47D
SNB-75 = test system: SNB-75
HCC 2998 = test system: HCC 2998
OVCAR-4 = test system: OVCAR-4
LOX IMVI = test system: LOX IMVI
SR = test system: SR
A549 = test system: A549
PC-3 = test system: PC-3
SK-OV-3 = test system: SK-OV-3
U-251 = test system: U-251
SK-MEL-28 = test system: SK-MEL-28
NCI-H522 = test system: NCI-H522
SK-MEL-2 = test system: SK-MEL-2
SF-295 = test system: SF-295
HOP-62 = test system: HOP-62
A498 = test system: A498
NCI-H460 = test system: NCI-H460

## O=C(Nc1ccccc1)N(C1=NCC(CI)S1)c1ccc(F)cc1F (stereo not given)
SW-620
  GI50: 62.1 µM (inactive)
MCF7
  GI50: 41.6 µM (inactive)
MDA-N
  GI50: 35.9 µM (inactive)
786-0
  GI50: 46 µM (inactive)
SNB-19
  GI50: > 100 µM (inactive)
K562
  GI50: 41.5 µM (inactive)
ACHN
  GI50: > 100 µM (inactive)
HCT-15
  GI50: 25 µM
DU-145
  GI50: > 100 µM (inactive)
EKVX
  GI50: > 100 µM (inactive)
RXF 393
  GI50: 24.3 µM (inactive)
SF-268
  GI50: > 100 µM (inactive)
SN12C
  GI50: 46.7 µM (inactive)
KM12
  GI50: 45.6 µM (inactive)
HCT-116
  GI50: 55.2 µM (inactive)
NCI-H23
  GI50: 50.6 µM (inactive)
OVCAR-8
  GI50: > 100 µM (inactive)
HL-60
  GI50: 20.1 µM (inactive)
IGROV-1
  GI50: 20.9 µM (inactive)
COLO 205
  GI50: 46 µM (inactive)
M14
  GI50: 79.1 µM (inactive)
MOLT-4
  GI50: 21.6 µM (inactive)
TK-10
  GI50: 82.8 µM (inactive)
RPMI-8226
  GI50: 56.2 µM (inactive)
HT-29
  GI50: 29.2 µM (inactive)
HOP-92
  GI50: 13.8 µM (inactive)
BT-549
  GI50: 26.5 µM (inactive)
CCRF-CEM
  GI50: 15.3 µM (inactive)
OVCAR-5
  GI50: > 100 µM (inactive)
Malme-3M
  GI50: > 100 µM (inactive)
NCI/ADR-RES
  GI50: > 100 µM (inactive)
SF-539
  GI50: 59.3 µM (inactive)
UO-31
  GI50: > 100 µM (inactive)
CAKI-1
  GI50: 25.4 µM (inactive)
Hs-578T
  GI50: > 100 µM (inactive)
UACC-62
  GI50: 25.6 µM (inactive)
UACC-257
  GI50: 23.2 µM (inactive)
OVCAR-3
  GI50: > 100 µM (inactive)
MDA-MB-435
  GI50: 50.1 µM (inactive)
MDA-MB-231
  GI50: 20.2 µM (inactive)
NCI-H226
  GI50: 87.3 µM (inactive)
SK-MEL-5
  GI50: 46 µM (inactive)
T47D
  GI50: 15.3 µM (inactive)
SNB-75
  GI50: > 100 µM (inactive)
HCC 2998
  GI50: 74.3 µM (inactive)
OVCAR-4
  GI50: 43.6 µM (inactive)
LOX IMVI
  GI50: 16 µM (inactive)
SR
  GI50: 12.2 µM (inactive)
A549
  GI50: > 100 µM (inactive)
PC-3
  GI50: 67.1 µM (inactive)
SK-OV-3
  GI50: > 100 µM (inactive)
U-251
  GI50: > 100 µM (inactive)
SK-MEL-28
  GI50: 24.1 µM (inactive)
NCI-H522
  GI50: 37.9 µM (inactive)
SK-MEL-2
  GI50: > 100 µM (inactive)
SF-295
  GI50: > 100 µM (inactive)
HOP-62
  GI50: > 100 µM (inactive)

## C=C1C(=O)O[C@H]2C3OC3(C)CC/C=C(/C(=O)OC)[C@@H](OC(C)=O)[C@H](OC(=O)C3(C)OC3C)[C@H]12 (stereo not given in full)
MCF7
  GI50: 1.12 µM (active)
MDA-N
  GI50: 1.65 µM (inactive)
SNB-19
  GI50: > 7.5 µM (inactive)
K562
  GI50: 0.299 µM (active)
DU-145
  GI50: 13.6 µM (inactive)
HL-60
  GI50: 0.196 µM (active)
RPMI-8226
  GI50: 0.297 µM (active)
HOP-92
  GI50: 1.61 µM (inactive)
BT-549
  GI50: 1.04 µM (active)
OVCAR-5
  GI50: 2.94 µM (inactive)
NCI/ADR-RES
  GI50: 3.73 µM (inactive)
Hs-578T
  GI50: 7.8 µM (inactive)
MDA-MB-435
  GI50: 2.05 µM (inactive)
MDA-MB-231
  GI50: 2.07 µM (inactive)
T47D
  GI50: 0.989 µM (active)
SR
  GI50: 0.186 µM (active)
PC-3
  GI50: 2.17 µM (inactive)

## NCCN1C(=O)c2ccccc2C1c1ccc(Cl)cc1 (stereo not given)
SW-620
  GI50: > 100 µM (inactive)
MCF7
  GI50: > 100 µM (inactive)
MDA-N
  GI50: > 100 µM (inactive)
786-0
  GI50: > 100 µM (inactive)
SNB-19
  GI50: > 100 µM (inactive)
K562
  GI50: > 100 µM (inactive)
ACHN
  GI50: > 100 µM (inactive)
HCT-15
  GI50: > 100 µM
A498
  GI50: > 100 µM (inactive)
DU-145
  GI50: > 100 µM (inactive)
EKVX
  GI50: > 100 µM (inactive)
RXF 393
  GI50: > 100 µM (inactive)
SF-268
  GI50: > 100 µM (inactive)
SN12C
  GI50: > 100 µM (inactive)
KM12
  GI50: > 100 µM (inactive)
HCT-116
  GI50: > 100 µM (inactive)
NCI-H23
  GI50: > 100 µM (inactive)
OVCAR-8
  GI50: > 100 µM (inactive)
HL-60
  GI50: > 100 µM (inactive)
IGROV-1
  GI50: > 100 µM (inactive)
COLO 205
  GI50: > 100 µM (inactive)
M14
  GI50: > 100 µM (inactive)
MOLT-4
  GI50: > 100 µM (inactive)
TK-10
  GI50: > 100 µM (inactive)
RPMI-8226
  GI50: > 100 µM (inactive)
HT-29
  GI50: > 100 µM (inactive)
HOP-92
  GI50: > 100 µM (inactive)
BT-549
  GI50: > 100 µM (inactive)
CCRF-CEM
  GI50: > 100 µM (inactive)
OVCAR-5
  GI50: > 100 µM (inactive)
NCI/ADR-RES
  GI50: > 100 µM (inactive)
SF-539
  GI50: > 100 µM (inactive)
UO-31
  GI50: > 100 µM (inactive)
CAKI-1
  GI50: > 100 µM (inactive)
Hs-578T
  GI50: > 100 µM (inactive)
UACC-62
  GI50: > 100 µM (inactive)
UACC-257
  GI50: > 100 µM (inactive)
OVCAR-3
  GI50: > 100 µM (inactive)
MDA-MB-435
  GI50: > 100 µM (inactive)
MDA-MB-231
  GI50: > 100 µM (inactive)
SK-MEL-5
  GI50: > 100 µM (inactive)
T47D
  GI50: > 100 µM (inactive)
SNB-75
  GI50: > 100 µM (inactive)
HCC 2998
  GI50: > 100 µM (inactive)
OVCAR-4
  GI50: > 100 µM (inactive)
LOX IMVI
  GI50: > 100 µM (inactive)
SR
  GI50: > 100 µM (inactive)
A549
  GI50: > 100 µM (inactive)
NCI-H460
  GI50: > 100 µM (inactive)
PC-3
  GI50: 92.3 µM (inactive)
SK-OV-3
  GI50: > 100 µM (inactive)
U-251
  GI50: > 100 µM (inactive)
SK-MEL-28
  GI50: > 100 µM (inactive)
SK-MEL-2
  GI50: > 100 µM (inactive)
SF-295
  GI50: > 100 µM (inactive)
HOP-62
  GI50: > 100 µM (inactive)
